Patent publication US11247996B2, “Small molecule inhibitors for transcription factors” (University of Massachusetts, priority 2016, dated 2022)

Tests used:
[1] = tested on: full-length HIV-1 NL4-3 (X4) viruses in Jurkat cells; test: Viral production in full-length HIV-1 NL4-3 infected Jurkat cells (qRT-PCR of medium); type: cell-based; conditions: full replication competent NL4-3 infected Jurkat cells, 24 hours
Experimental: To determine the effect of UMB-136 on HIV-1 replication, Jurkat cells were infected with full-length HIV-1 NL4-3 (X4) viruses for 8 hours before being treated with compounds (UMB-136, JQ1, or prostratin) for 24 hours. The medium was collected and subjected to viral RNA extraction, reverse transcription, and qPCR assays by using Lenti-X™ qRT-PCR Titration Kit (Clontech, Mountain View, Calif.) following the manufacturer's instructions.

[2] = tested on: latent HIV-1 89.6 strain in THP89GFP cells; test: Flow cytometry on THP89GFP monocytic latency cells; type: cell-based; conditions: UMB-136 5 μM, JQ1 1 μM, 24 hours
Experimental: (§1) The CD4+ T-lymphoid cell lines included Jurkat, J-Lat A2 (harboring an LTR-Tat-IRES-GFP construct), J-Lat 6.3, 8.4, 9.2, 10.4 (containing a full-length integrated HIV-1 genome with a defective envelop, that express GFP upon activation). Monocytic THP89GFP cells were provided by David Levy (New York University). Jurkat cells were cultured in RPMI with 10% FBS. THP89GFP and Primary CD4+ helper T cells (Sanguine Biosciences, Sherman Oaks, Calif. and Lonza Group Ltd., Basel, Switzerland) were cultured and maintained respectively in complete medium (RPMI 1640 with 10% FBS, lx glutamine, lx MEM non-essential amino acid solution, and 20 mM HEPES).
(§2) The HIV-1 latency-reversing effect of UMB-136 was evaluated on different reservoirs (lymphocytes and macrophages), J-Lat cell clones (6.3, 8.4, 9.2, and 10.4) and THP89GFP were treated with DMSO, JQ1 (1 μM), or UMB-136 (2.5, 5 μM for J-Lat cells, 5 μM for THP89GFP). For the investigation of synergistic effects JLat clones were treated with UMB-136 (2.5 μM), JQ1 (1 μM), SAHA (0.5 μM) or prostratin (1 μM) or DMSO as a control. Drugs were used alone or in combination. Flow cytometry was conducted at 24 hours post treatment and GFP-positive cells were quantified.
(§3) All flow cytometry assays were conducted using an Accuri C6 Flow Cytometer (Accuri, Ann Arbor, Mich.). […]

[3] = tested on: latent HIV-1 in CD8-depleted PBMCs; conditions: JQ1 in combination with bryostatin-1, earlier reports; cited from earlier work
[4] = tested on: latent HIV-1 in J-Lat clones (6.3, 8.4, 9.2, and 10.4); test: LRA combinations in J-Lat clones (flow cytometry, Bliss independence model); type: cell-based; conditions: for Synergy in reversing HIV-1, combination with prostratin: +prostratin 1 μM
Experimental: as §2
(§4) All flow cytometry assays were conducted using an Accuri C6 Flow Cytometer (Accuri, Ann Arbor, Mich.). Cell debris and aggregates were excluded by gating on the Forward Scatter (FS) and Side Scatter (SS) parameters.

[5] = tested on: latent HIV-1 in J-Lat clones (6.3, 8.4, 9.2, and 10.4); test: Flow cytometry on J-Lat full-length (dEnv) clones, single LRA; type: cell-based; conditions: J-Lat 6.3, 8.4, 9.2, 10.4; UMB-136 2.5 and 5 (printed PM), JQ1 1 μM; 24 hours
Experimental: as §1, §2, §3

[6] = tested on: latent HIV-1 in non-polarized, memory CD4+ T cells; test: Primary CD4+ T cell model of HIV-1 latency (blood or tonsil); type: cell-based; conditions: primary CD4+ T cells from blood or lymph node (tonsil), two donors; compound alone
Experimental: To acquire primary CD4+ T cells, primary CD4+ T cells were isolated from either lymphoid tissue (tonsil) or from the peripheral blood of two donors. Tonsils were isolated from HIV-negative donors, with obstructive sleep apnea (OSA), whom required surgical removal of their tonsils. Isolation of tonsillar mononuclear cells (TMC) was performed as described in Johnston et al. Curr Protoc Immunol Chapter 7, Unit 7-8. In brief, fresh, healthy tonsils kept in ice-cold 1× Hank's Balanced Salt Solution (HBSS) with antibiotics (100 U/mL penicillin, 100 ug/mL streptomycin, 5 ug/mL gentamicin, 0.5 ug/mL amphotericin) were cut into 3- to 10-mm fragments with scalpels then pushed through a 3-inch stainless steel sieve using the flat end of a 5-mL plastic syringe plunger. […]
The LRA effect of UMB-136 was studied by modifying slightly a primary CD4+ T cell model of HIV-1 latency as described in Bosque et al. Methods. […] On day 21, 5 days post treatment, the supernatant was collected for quantification of newly produced viruses using the Lent-X™ qRT-PCR Titration Kit (Clontech, Mountain View, Calif.) following the manufacturer's instructions.

[7] = tested on: latent HIV-1 in CD8-depleted PBMCs; test: Ex vivo latency reversal in CD8-depleted PBMCs of cART-treated aviremic patients (nested qPCR); type: cell-based
[8] = tested on: latent HIV-1 in J-Lat A2 cells; test: HIV-1 latency-reversing flow cytometry assay in J-Lat A2 cells; type: cell-based; conditions: 5 μM; for HIV-1 reactivation (GFP-positive cells): 24 hours post treatment
Experimental: as §1
Wells were treated with 5 μM of compound or dimethyl sulfoxide (DMSO). GFP-positive cells were acquired and analyzed by flow cytometry at 24 hours post treatment.
as §4

CD8-depleted PBMCs = test: Cell death due to LRA treatments in CD8-depleted PBMCs; type: cell-based; conditions: compared with JQ1 combinations
primary CD4+ T cells = test: Cytokine release in primary CD4+ T cells from healthy donor; type: cell-based
P-TEFb (CCNT1) and Tat = test: Tat-Flag immunoprecipitation in HeLa cells, Cyclin T1 immunoblot; type: cell-based; conditions: 2.5 μM, 24 hours
Experimental: Tat-Flag expressing HeLa cells were treated with UMB-136 (2.5 μM) or DMSO for 24 hours, then incubated with Magnetic Flag Conjugated beads (Clontech, Mountain View, Calif.) at 4° C. for overnight with orbital rocking. Beads were washed and boiled, then immunoblotting was performed using Cyclin T1 antibody (Santa Cruz Biotechnology, Dallas, Tex.).

endogenous BRD4 = biological target: T1, endogenous BRD4 (Homo sapiens, UniProt O60885); test: Pull-down with biotinylated UMB-136 from HEK293 cell lysate, BRD4 immunoblot; type: binding; conditions: biotinylated UMB-136, HEK293 cell lysate
T1 construct: endogenous in cells; host or cells: HEK293
Experimental: (§5) Pull-down and Immunoprecipitation (IP) assays were performed by incubating HEK293 cell lysate with either biotinylated UMB-136 or biotin in DMSO at 4° C. overnight with orbital rocking. MyOne™ Streptavidin T1 Dynabeads™ (Invitrogen, Carlsbad, Calif.) were added to the mixture which was then incubated for 2 hours. Beads were washed and then boiled to elute precipitated proteins, which were subjected to immunoblotting using BRD4 antibody (Bethyl Laboratories, Inc., Montgomery, Tex.) or BRD2 antibody (Santa Cruz Biotechnology, Dallas, Tex.).

[9] = tested on: VSV-G pseudo-typed HIV-1 NL4-3-Luciferase virus infected Jurkat cells; type: cell-based
BRD2 = biological target: T2, BRD2 (Homo sapiens, UniProt P25440); test: Pull-down with biotinylated UMB-136 from HEK293 cell lysate, BRD2 immunoblot; type: binding; conditions: biotinylated UMB-136, HEK293 cell lysate
T2 construct: endogenous in cells; host or cells: HEK293
T2 sequence (P25440 whole entry): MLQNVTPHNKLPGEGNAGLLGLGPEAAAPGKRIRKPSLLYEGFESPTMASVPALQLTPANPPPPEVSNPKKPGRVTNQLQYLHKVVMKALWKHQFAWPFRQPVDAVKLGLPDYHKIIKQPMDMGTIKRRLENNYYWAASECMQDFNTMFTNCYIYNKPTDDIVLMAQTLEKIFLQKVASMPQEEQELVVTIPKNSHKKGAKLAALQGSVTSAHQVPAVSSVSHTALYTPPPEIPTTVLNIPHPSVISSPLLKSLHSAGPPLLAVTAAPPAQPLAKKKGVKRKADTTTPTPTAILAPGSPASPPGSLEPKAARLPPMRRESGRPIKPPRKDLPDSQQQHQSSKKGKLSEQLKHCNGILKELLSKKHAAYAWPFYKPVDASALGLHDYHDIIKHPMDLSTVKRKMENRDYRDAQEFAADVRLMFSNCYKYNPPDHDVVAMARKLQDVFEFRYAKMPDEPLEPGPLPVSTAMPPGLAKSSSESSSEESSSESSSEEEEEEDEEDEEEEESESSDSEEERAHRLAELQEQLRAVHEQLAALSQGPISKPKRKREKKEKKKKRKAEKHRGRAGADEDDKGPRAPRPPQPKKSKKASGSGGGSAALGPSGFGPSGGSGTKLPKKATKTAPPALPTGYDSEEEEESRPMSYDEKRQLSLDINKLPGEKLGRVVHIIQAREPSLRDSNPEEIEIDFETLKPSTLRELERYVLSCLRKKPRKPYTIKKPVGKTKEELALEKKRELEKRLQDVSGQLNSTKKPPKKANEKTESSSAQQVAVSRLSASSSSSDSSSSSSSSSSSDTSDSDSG
Experimental: as §5

Jurkat cells = conditions: human, 24 h, 2.5 μM
Experimental: Cell viability assays were performed by culturing Jurkat cells in a 48-well plate at 1×10^5 cells per well in a total volume of 250 μl RPMI media with 10% FBS. […] After an incubation period of 24 hours, cells were lysed. The total ATP content was measured using Cell Titer Glo (Promega Corporation, Madison, Wis.).

BRD4 = BRD4 (Homo sapiens, UniProt O60885); conditions: McKeown et al., J Med Chem, 2014; cited from earlier work
TAF1 = TAF1 (Homo sapiens, UniProt P21675); conditions: McKeown et al., J Med Chem, 2014; cited from earlier work
Sequence of TAF1 (P21675 whole entry): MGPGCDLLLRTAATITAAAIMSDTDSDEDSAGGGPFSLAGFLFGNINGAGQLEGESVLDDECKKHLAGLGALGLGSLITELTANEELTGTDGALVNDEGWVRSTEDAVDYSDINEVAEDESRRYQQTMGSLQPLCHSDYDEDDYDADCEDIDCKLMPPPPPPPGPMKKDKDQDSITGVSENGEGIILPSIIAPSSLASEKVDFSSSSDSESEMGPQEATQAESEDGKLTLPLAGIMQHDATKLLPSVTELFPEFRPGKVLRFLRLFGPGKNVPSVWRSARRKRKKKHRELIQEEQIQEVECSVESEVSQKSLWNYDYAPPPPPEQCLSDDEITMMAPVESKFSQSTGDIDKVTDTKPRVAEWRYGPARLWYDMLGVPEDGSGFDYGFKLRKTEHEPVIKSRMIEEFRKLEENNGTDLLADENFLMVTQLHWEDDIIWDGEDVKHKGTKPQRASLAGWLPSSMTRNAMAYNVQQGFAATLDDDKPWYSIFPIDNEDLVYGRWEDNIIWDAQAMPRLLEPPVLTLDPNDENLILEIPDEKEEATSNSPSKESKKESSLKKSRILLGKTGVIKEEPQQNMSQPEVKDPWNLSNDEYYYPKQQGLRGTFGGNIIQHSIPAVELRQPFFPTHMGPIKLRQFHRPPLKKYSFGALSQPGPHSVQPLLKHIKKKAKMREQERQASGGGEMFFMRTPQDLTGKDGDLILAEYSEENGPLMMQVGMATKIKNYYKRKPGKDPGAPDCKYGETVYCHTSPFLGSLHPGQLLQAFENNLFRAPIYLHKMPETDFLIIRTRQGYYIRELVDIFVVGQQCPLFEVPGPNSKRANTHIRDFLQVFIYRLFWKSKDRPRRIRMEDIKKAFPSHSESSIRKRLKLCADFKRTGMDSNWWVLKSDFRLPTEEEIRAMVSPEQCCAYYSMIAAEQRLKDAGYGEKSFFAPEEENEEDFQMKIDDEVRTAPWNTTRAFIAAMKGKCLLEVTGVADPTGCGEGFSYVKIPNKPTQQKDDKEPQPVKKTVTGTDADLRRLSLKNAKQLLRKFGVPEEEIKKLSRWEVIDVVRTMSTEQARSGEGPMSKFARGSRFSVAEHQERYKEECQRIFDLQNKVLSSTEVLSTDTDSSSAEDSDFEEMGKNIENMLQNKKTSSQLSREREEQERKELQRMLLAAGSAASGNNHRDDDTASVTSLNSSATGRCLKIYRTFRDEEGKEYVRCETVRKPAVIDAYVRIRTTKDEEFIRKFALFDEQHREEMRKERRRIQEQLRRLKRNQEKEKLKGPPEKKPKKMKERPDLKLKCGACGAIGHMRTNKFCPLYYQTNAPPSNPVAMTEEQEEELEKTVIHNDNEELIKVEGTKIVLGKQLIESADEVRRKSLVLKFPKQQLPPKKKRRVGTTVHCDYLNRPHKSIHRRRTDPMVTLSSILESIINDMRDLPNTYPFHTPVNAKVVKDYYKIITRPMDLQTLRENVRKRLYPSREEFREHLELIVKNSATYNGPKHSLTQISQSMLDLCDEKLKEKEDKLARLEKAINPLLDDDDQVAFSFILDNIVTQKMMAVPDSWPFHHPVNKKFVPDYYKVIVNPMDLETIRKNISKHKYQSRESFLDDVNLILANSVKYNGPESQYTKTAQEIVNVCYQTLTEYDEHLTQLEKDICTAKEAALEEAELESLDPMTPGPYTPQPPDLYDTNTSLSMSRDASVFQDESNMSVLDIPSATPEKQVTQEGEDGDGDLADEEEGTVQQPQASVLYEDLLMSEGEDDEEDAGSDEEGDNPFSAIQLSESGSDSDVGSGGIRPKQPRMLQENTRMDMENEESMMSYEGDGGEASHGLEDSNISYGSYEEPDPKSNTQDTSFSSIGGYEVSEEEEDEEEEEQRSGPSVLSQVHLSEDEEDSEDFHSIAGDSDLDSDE

[10] = J-Lat clones, Bliss independence model

Cc1sc2c(c1C)C(c1ccc(Cl)cc1)=N[C@@H](CC(=O)OC(C)(C)C)c1nnc(C)n1-2 [JQ1, reference compound]
Viral production [1]: did not | Reactivation of latent HIV-1 [2]: did not | Reversal of HIV-1 latency, combination with bryostatin-1 (reported) [3]: potently reverse HIV-1 latency | Reactivation of latent HIV-1, combination with SAHA ([4]; J-Lat cell clones, JQ1+SAHA combination): minimally reactivates latent HIV-1 | Synergy in reversing HIV-1, combination with prostratin [4, 10]: significantly synergizes with prostratin | Reversal of HIV-1 latency (GFP-positive cells) [5]: no observable effect | Reactivation of latent virus [6]: fails to do so

COc1cc(-c2c(C)noc2C)ccc1-c1nc2cnccn2c1NC1CCCCC1 [UMB-136]
Viral production [1]: enhanced viral production | Viral reactivation, combination with bryostatin-1, compared with JQ1+bryostatin-1 [7]: even greater viral reactivation | Reversal of HIV-1 latency, combination with PKC agonists (prostratin or bryostatin-1) ([7]; CD8-depleted PBMCs, UMB-136 2.5 μM, prostratin 250 nM or bryostatin-1 10 nM, 48 hours): observed to reverse HIV-1 latency | Reactivation of latent HIV-1 [2]: substantial reactivation | HIV-1 latency-reversing potency relative to other UMB compounds ([8]; 24 hours): most effective of all | HIV-1 reactivation (GFP-positive cells) [8]: significantly induced HIV-1 reactivation | Cytotoxicity (cell death) of combinations with prostratin/bryostatin-1 (CD8-depleted PBMCs): less cytotoxicity than JQ1 and prostratin/bryostatin-1 combinations | Cytokine release (primary CD4+ T cells): does not induce cytokine release | Protein association between P-TEFb (CCNT1) and Tat (P-TEFb (CCNT1) and Tat): greater protein association between P-TEFb (CCNT1) and Tat | Binding to endogenous BRD4 (pull-down) (endogenous BRD4): binds to endogenous BRD4 | Synergy in reversing HIV-1, combination with SAHA ([4]; J-Lat clones, Bliss independence model, +SAHA 0.5 μM): statistically significant synergistic effect | Synergy in reversing HIV-1, combination with prostratin [4, 10]: statistically significant synergistic effect | HIV-1 reactivation in combination with SAHA or prostratin, compared with JQ1 combination ([4]; J-Lat clones, UMB-136 2.5 μM, SAHA 0.5 μM, prostratin 1 μM): greater effect of HIV-1 reactivation than its JQ1 counterpart | HIV-1 transcriptional initiation and elongation [9]: enhances both transcriptional initiation and elongation of HIV-1 | Reversal of HIV-1 latency (GFP-positive cells) [5]: dramatically reversed HIV-1 latency | Binding to BRD2 (pull-down) (BRD2): not BRD2 | Cell viability (Jurkat cells): same viability as 1 μM of JQ1 | Reactivation of latent virus [6]: efficiently reactivated latent virus

Cc1noc(C)c1-c1ccc(-c2nc3cnccn3c2NC(C)(C)C)cc1 [UMB-32]
HIV-1 reactivation (GFP-positive cells) [8]: significantly induced HIV-1 reactivation | Binding to BRD4 (BRD4): strongly binds | Inhibition of target binding of BRD4 (BRD4): potently inhibits the target binding of BRD4 | Binding to TAF1 (TAF1): strongly binds
